The source of these data is patent publication US6172079A, “5-substituted-3-oxadiazolyl-1,6-naphthyridin-2(1H)-one derivatives” (Dainippon Pharmaceutical Co., Ltd., priority 1997, dated 2001).

Structures are written as SMILES.

In this assay the target is benzodiazepine receptor. The experiment in a line: Benzodiazepine Receptor Binding Assay. To be noted: read-out: BZP-receptor Binding IC50; [3H]-diazepam 1.5 nM; rat brain crude synaptosome membrane; 0° C., 20 min.

For the compound `Cc1nccc2[nH]c(=O)c(-c3noc(C4CC4)n3)cc12` [Example 1, 3-(5-cyclopropyl-1,2,4-oxadiazol-3-yl)-5-methyl-1,6-naphthyridin-2(1H)-one], the IC50 (in general, the concentration needed to halve the response being measured) worked out at 2.28 nM.

Consider `Cc1cccc(-c2nccc3[nH]c(=O)c(-c4noc(C)n4)cc23)c1` [Example 9], for which the 50% inhibitory concentration (IC50) came out at 1.62 nM.

On to `Cc1ccc(-c2nccc3[nH]c(=O)c(-c4noc(C)n4)cc23)cc1` [Example 10], for which the IC50 was found to be 8.08 nM.

Take `CCc1nc(-c2cc3cnccc3[nH]c2=O)no1` [Example 12]: the concentration for half-maximal inhibition (IC50) was 7.89 nM.

For the compound `CCCc1nccc2[nH]c(=O)c(-c3noc(CC)n3)cc12` [Example 15], the IC50 worked out at 6.16 nM.

Turning to `CCCCc1nccc2[nH]c(=O)c(-c3noc(CC)n3)cc12` [Example 19], the IC50 was found to be 6.37 nM.

Turning to `CCCCCc1nccc2[nH]c(=O)c(-c3noc(CC)n3)cc12` [Example 22], the half-inhibitory concentration (IC50) was 3.76 nM.

Turning to `CCc1nc(-c2cc3c(C4CC=CCC4)nccc3[nH]c2=O)no1` (stereo not drawn) [Example 25], the IC50 worked out at 1.84 nM.

For the compound `CCc1nc(-c2cc3c(-c4ccccc4)nccc3[nH]c2=O)no1` [Example 26], the concentration for half-maximal inhibition (IC50) was found to be 0.67 nM.

Take `CCc1nc(-c2cc3c(-c4cccc(F)c4)nccc3[nH]c2=O)no1` [Example 27]: the concentration for half-maximal inhibition (IC50) was 0.96 nM.

As for `CCc1nc(-c2cc3c(-c4ccc(F)cc4)nccc3[nH]c2=O)no1` [Example 28], the 50% inhibitory concentration (IC50) was found to be 1.25 nM.

For `CCc1nc(-c2cc3c(-c4cccc(Cl)c4)nccc3[nH]c2=O)no1` [Example 29], the half-inhibitory concentration (IC50) was determined as 5.28 nM.

For `CCc1nc(-c2cc3c(-c4cccc(C)c4)nccc3[nH]c2=O)no1` [Example 31], the IC50 was 1.64 nM.

Regarding `CCc1nc(-c2cc3c(-c4ccc(C)cc4)nccc3[nH]c2=O)no1` [Example 32], the IC50 turned out to be 3.29 nM.

In the case of `CCc1nc(-c2cc3c(-c4ccc(OC)cc4)nccc3[nH]c2=O)no1` [Example 33], the concentration for half-maximal inhibition (IC50) turned out to be 5.5 nM.

For the compound `CCCc1nc(-c2cc3c(C4CC4)nccc3[nH]c2=O)no1` [Example 37], the IC50 was found to be 3.91 nM.

For the compound `CCCc1nc(-c2cc3c(-c4cccc(F)c4)nccc3[nH]c2=O)no1` [Example 39], the concentration for half-maximal inhibition (IC50) worked out at 2.86 nM.

In the case of `CCCc1nc(-c2cc3c(-c4ccc(F)cc4)nccc3[nH]c2=O)no1` [Example 40], the IC50 came out at 7.45 nM.

Turning to `CC(C)c1nc(-c2cc3c(C4CC4)nccc3[nH]c2=O)no1` [Example 44], the IC50 is 2.62 nM.

For the compound `CC(C)c1nc(-c2cc3c(-c4cccc(F)c4)nccc3[nH]c2=O)no1` [Example 46], the 50% inhibitory concentration (IC50) was found to be 2.15 nM.

Consider `CCCc1nccc2[nH]c(=O)c(-c3noc(C4CC4)n3)cc12` [Example 49], for which the IC50 was 1.11 nM.

`O=c1[nH]c2ccnc(C3CC3)c2cc1-c1noc(C2CC2)n1` [Example 51]: the IC50 is 0.79 nM.

For the compound `O=c1[nH]c2ccnc(-c3ccc(F)cc3)c2cc1-c1noc(C2CC2)n1` [Example 54], the IC50 stood at 1.21 nM.

For the compound `O=c1[nH]c2ccnc(-c3ccc(Cl)cc3)c2cc1-c1noc(C2CC2)n1` [Example 56], the concentration for half-maximal inhibition (IC50) is 2.71 nM.

With `Cc1cccc(-c2nccc3[nH]c(=O)c(-c4noc(C5CC5)n4)cc23)c1` [Example 57], the concentration for half-maximal inhibition (IC50) was found to be 1.55 nM.

For the compound `COc1ccc(-c2nccc3[nH]c(=O)c(-c4noc(C5CC5)n4)cc23)cc1` [Example 59], the half-maximal inhibitory concentration (IC50) stood at 1.98 nM.

In the case of `C=C(C)c1nc(-c2cc3c(C4CC4)nccc3[nH]c2=O)no1` [Example 60], the 50% inhibitory concentration (IC50) worked out at 2.01 nM.

Regarding `C=Cc1nc(-c2cc3c(C4CC4)nccc3[nH]c2=O)no1` [Example 61], the 50% inhibitory concentration (IC50) turned out to be 1.04 nM.

Consider `CCc1nc(-c2cc3c(-c4ccccc4C)nccc3[nH]c2=O)no1` [Example 97], for which the IC50 was 4.64 nM.

Turning to `CCc1nc(-c2cc3c(-c4ccccc4OC)nccc3[nH]c2=O)no1` [Example 98], the concentration for half-maximal inhibition (IC50) was 8.56 nM.

Take `CCc1nc(-c2cc3c(-c4cccc(OC)c4)nccc3[nH]c2=O)no1` [Example 99]: the IC50 is 1.67 nM.

`CCc1nc(-c2cc3c(-c4ccc(Cl)s4)nccc3[nH]c2=O)no1` [Example 104]: the half-inhibitory concentration (IC50) was 5.18 nM.

Regarding `CCCc1nc(-c2cc3c(-c4ccccc4F)nccc3[nH]c2=O)no1` [Example 108], the half-maximal inhibitory concentration (IC50) came out at 2.14 nM.

As for `CCCc1nc(-c2cc3c(-c4ccco4)nccc3[nH]c2=O)no1` [Example 109], the IC50 turned out to be 1.75 nM.

In the case of `CCCc1nc(-c2cc3c(-c4cccs4)nccc3[nH]c2=O)no1` [Example 110], the IC50 turned out to be 1.16 nM.

As to `CCCc1nc(-c2cc3c(-c4ccsc4)nccc3[nH]c2=O)no1` [Example 111], the 50% inhibitory concentration (IC50) came out at 2.06 nM.

In the case of `CC(C)c1nc(-c2cc3c(-c4ccccc4F)nccc3[nH]c2=O)no1` [Example 112], the IC50 was 2.68 nM.

Regarding `CC(C)c1nc(-c2cc3c(-c4ccco4)nccc3[nH]c2=O)no1` [Example 113], the IC50 came out at 2.18 nM.

Regarding `CC(C)c1nc(-c2cc3c(-c4cccs4)nccc3[nH]c2=O)no1` [Example 114], the IC50 amounted to 1.08 nM.

On to `CC(C)c1nc(-c2cc3c(-c4ccsc4)nccc3[nH]c2=O)no1` [Example 115], for which the IC50 was found to be 1.52 nM.

`O=c1[nH]c2ccnc(-c3ccccc3F)c2cc1-c1noc(C2CC2)n1` [Example 116]: the half-maximal inhibitory concentration (IC50) was 1.17 nM.

With `O=c1[nH]c2ccnc(-c3ccccc3Cl)c2cc1-c1noc(C2CC2)n1` [Example 117], the 50% inhibitory concentration (IC50) came out at 1.41 nM.

With `Cc1ccccc1-c1nccc2[nH]c(=O)c(-c3noc(C4CC4)n3)cc12` [Example 118], the IC50 is 1.28 nM.

On to `COc1ccccc1-c1nccc2[nH]c(=O)c(-c3noc(C4CC4)n3)cc12` [Example 119], for which the IC50 is 2.53 nM.

With `COc1cccc(-c2nccc3[nH]c(=O)c(-c4noc(C5CC5)n4)cc23)c1` [Example 120], the IC50 is 1.59 nM.

In the case of `O=c1[nH]c2ccnc(-c3ccco3)c2cc1-c1noc(C2CC2)n1` [Example 121], the IC50 came out at 0.78 nM.

In the case of `O=c1[nH]c2ccnc(-c3cccs3)c2cc1-c1noc(C2CC2)n1` [Example 122], the IC50 worked out at 0.87 nM.

As to `CCCCc1nccc2[nH]c(=O)c(-c3nc(CC)no3)cc12` [Example 195], the IC50 came out at 4.01 nM.

For the compound `CCc1noc(-c2cc3c(C4CCCCC4)nccc3[nH]c2=O)n1` [Example 197], the IC50 was found to be 1.97 nM.

`CCc1noc(-c2cc3c(-c4ccccc4F)nccc3[nH]c2=O)n1` [Example 199]: the IC50 stood at 1.55 nM.

Take `CCc1noc(-c2cc3c(-c4ccc(F)cc4)nccc3[nH]c2=O)n1` [Example 201]: the IC50 worked out at 1.84 nM.

Regarding `CCc1noc(-c2cc3c(-c4ccc(Cl)cc4)nccc3[nH]c2=O)n1` [Example 204], the IC50 amounted to 5.51 nM.

With `CCc1noc(-c2cc3c(-c4ccccc4C)nccc3[nH]c2=O)n1` [Example 205], the IC50 was found to be 4.77 nM.

Regarding `CCc1noc(-c2cc3c(-c4ccc(C)cc4)nccc3[nH]c2=O)n1` [Example 207], the 50% inhibitory concentration (IC50) was 3.42 nM.

Regarding `CCc1noc(-c2cc3c(-c4ccccc4OC)nccc3[nH]c2=O)n1` [Example 208], the IC50 was determined as 4.14 nM.

As for `CCc1noc(-c2cc3c(-c4cccc(OC)c4)nccc3[nH]c2=O)n1` [Example 209], the half-maximal inhibitory concentration (IC50) is 1.28 nM.

On to `CCCc1noc(-c2cc3c(C4CC4)nccc3[nH]c2=O)n1` [Example 215], for which the IC50 amounted to 2.47 nM.

For the compound `CCCc1noc(-c2cc3c(-c4ccccc4)nccc3[nH]c2=O)n1` [Example 216], the concentration for half-maximal inhibition (IC50) is 1.17 nM.

In the case of `CCCc1noc(-c2cc3c(-c4ccccc4F)nccc3[nH]c2=O)n1` [Example 217], the IC50 was determined as 1.34 nM.

For `CCCc1noc(-c2cc3c(-c4cccc(F)c4)nccc3[nH]c2=O)n1` [Example 218], the half-inhibitory concentration (IC50) is 2.58 nM.

As for `CCCc1noc(-c2cc3c(-c4ccc(F)cc4)nccc3[nH]c2=O)n1` [Example 219], the IC50 turned out to be 2.03 nM.

Regarding `CCCc1noc(-c2cc3c(-c4cccs4)nccc3[nH]c2=O)n1` [Example 221], the concentration for half-maximal inhibition (IC50) amounted to 0.72 nM.

Regarding `CCCc1noc(-c2cc3c(-c4ccsc4)nccc3[nH]c2=O)n1` [Example 222], the concentration for half-maximal inhibition (IC50) amounted to 1.49 nM.

Regarding `CC(C)c1noc(-c2cc3c(-c4ccccc4)nccc3[nH]c2=O)n1` [Example 225], the IC50 was found to be 2.12 nM.

In the case of `CC(C)c1noc(-c2cc3c(-c4ccccc4F)nccc3[nH]c2=O)n1` [Example 226], the 50% inhibitory concentration (IC50) stood at 1.41 nM.

On to `CC(C)c1noc(-c2cc3c(-c4cccc(F)c4)nccc3[nH]c2=O)n1` [Example 227], for which the IC50 stood at 1.46 nM.

For the compound `CC(C)c1noc(-c2cc3c(-c4cccs4)nccc3[nH]c2=O)n1` [Example 230], the 50% inhibitory concentration (IC50) is 0.9 nM.

Consider `CC(C)c1noc(-c2cc3c(-c4ccsc4)nccc3[nH]c2=O)n1` [Example 231], for which the IC50 came to 0.71 nM.

Turning to `Cc1nccc2[nH]c(=O)c(-c3nc(C4CC4)no3)cc12` [Example 232], the IC50 stood at 6.48 nM.

Turning to `O=c1[nH]c2ccnc(C3CC3)c2cc1-c1nc(C2CC2)no1` [Example 234], the IC50 came to 0.84 nM.

For the compound `O=c1[nH]c2ccnc(-c3ccccc3)c2cc1-c1nc(C2CC2)no1` [Example 235], the half-maximal inhibitory concentration (IC50) was determined as 0.91 nM.

As for `O=c1[nH]c2ccnc(-c3ccccc3F)c2cc1-c1nc(C2CC2)no1` [Example 236], the half-inhibitory concentration (IC50) amounted to 1.61 nM.

With `O=c1[nH]c2ccnc(-c3cccc(F)c3)c2cc1-c1nc(C2CC2)no1` [Example 237], the concentration for half-maximal inhibition (IC50) was 1.86 nM.

As for `O=c1[nH]c2ccnc(-c3ccc(F)cc3)c2cc1-c1nc(C2CC2)no1` [Example 238], the concentration for half-maximal inhibition (IC50) was 1.38 nM.

Regarding `Cc1ccccc1-c1nccc2[nH]c(=O)c(-c3nc(C4CC4)no3)cc12` [Example 242], the half-inhibitory concentration (IC50) is 1.87 nM.

For the compound `Cc1cccc(-c2nccc3[nH]c(=O)c(-c4nc(C5CC5)no4)cc23)c1` [Example 243], the IC50 was 1.81 nM.

For `O=c1[nH]c2ccnc(-c3cccs3)c2cc1-c1nc(C2CC2)no1` [Example 246], the half-inhibitory concentration (IC50) was found to be 1.46 nM.

Consider `CCc1nnc(-c2cc3c(-c4ccccc4)nccc3[nH]c2=O)o1` [Example 311], for which the half-inhibitory concentration (IC50) was 1.91 nM.
